Assay results: ChEMBL document CHEMBL3352479, “Discovery and SAR study of 2-(4-pyridylamino)thieno[3,2-d]pyrimidin-4(3H)-ones as soluble and highly potent PDE7 inhibitors” (Bioorg Med Chem Lett, 2015)
Converted amounts (≈) assume the structure as drawn.

Tests used:
[1] = Solubility in phosphate buffer at pH 6.8; assay type: physicochemical
[2] = target: High affinity 3',5'-cyclic-AMP phosphodiesterase 7A (Homo sapiens, UniProt Q13946); assay: Inhibition of PDE7A (unknown origin)
[3] = target: 3',5'-cyclic-AMP phosphodiesterase 4B (Homo sapiens, UniProt Q07343); assay: Inhibition of PDE4B (unknown origin)
Lymphocyte = assay: Inhibition of IL2 production from mouse activated lymphocytes; assay type: functional, cell-based
[4] = target: cGMP-inhibited 3',5'-cyclic phosphodiesterase 3A (Homo sapiens, UniProt Q14432); assay: Inhibition of PDE3A (unknown origin)
[5] = target: cGMP-specific 3',5'-cyclic phosphodiesterase (Homo sapiens, UniProt O76074); assay: Inhibition of PDE5A (unknown origin)

Sequence of cGMP-inhibited 3',5'-cyclic phosphodiesterase 3A (Q14432 whole entry): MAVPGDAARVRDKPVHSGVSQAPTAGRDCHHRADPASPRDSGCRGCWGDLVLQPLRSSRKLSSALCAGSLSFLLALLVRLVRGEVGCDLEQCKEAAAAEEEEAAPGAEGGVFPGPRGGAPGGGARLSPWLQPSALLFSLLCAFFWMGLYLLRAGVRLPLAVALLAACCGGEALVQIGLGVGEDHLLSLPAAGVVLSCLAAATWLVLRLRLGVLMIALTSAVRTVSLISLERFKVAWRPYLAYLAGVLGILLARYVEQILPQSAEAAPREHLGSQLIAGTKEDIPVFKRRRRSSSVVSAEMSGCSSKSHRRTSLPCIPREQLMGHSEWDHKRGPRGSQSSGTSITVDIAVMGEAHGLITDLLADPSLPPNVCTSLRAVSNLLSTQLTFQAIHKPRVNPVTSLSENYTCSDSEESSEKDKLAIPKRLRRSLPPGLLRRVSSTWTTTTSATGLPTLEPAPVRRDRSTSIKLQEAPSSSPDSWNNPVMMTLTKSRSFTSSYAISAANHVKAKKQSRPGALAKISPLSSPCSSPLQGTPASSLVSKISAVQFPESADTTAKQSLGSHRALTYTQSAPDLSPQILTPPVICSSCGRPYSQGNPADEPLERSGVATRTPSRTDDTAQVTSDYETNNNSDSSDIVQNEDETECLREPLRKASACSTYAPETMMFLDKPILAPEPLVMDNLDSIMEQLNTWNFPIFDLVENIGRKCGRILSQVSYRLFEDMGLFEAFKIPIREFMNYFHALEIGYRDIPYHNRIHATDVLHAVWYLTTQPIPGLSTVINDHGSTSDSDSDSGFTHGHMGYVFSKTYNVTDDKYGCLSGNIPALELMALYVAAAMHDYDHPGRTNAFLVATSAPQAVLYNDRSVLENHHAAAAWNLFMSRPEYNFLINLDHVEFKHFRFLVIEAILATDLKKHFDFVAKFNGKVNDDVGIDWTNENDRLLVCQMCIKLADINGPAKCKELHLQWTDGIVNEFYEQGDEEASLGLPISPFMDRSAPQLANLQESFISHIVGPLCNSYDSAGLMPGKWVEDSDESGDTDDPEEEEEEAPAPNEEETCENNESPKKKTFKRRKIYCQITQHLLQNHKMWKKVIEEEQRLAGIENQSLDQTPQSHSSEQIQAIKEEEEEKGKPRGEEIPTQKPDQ
Sequence of 3',5'-cyclic-AMP phosphodiesterase 4B (Q07343 whole entry): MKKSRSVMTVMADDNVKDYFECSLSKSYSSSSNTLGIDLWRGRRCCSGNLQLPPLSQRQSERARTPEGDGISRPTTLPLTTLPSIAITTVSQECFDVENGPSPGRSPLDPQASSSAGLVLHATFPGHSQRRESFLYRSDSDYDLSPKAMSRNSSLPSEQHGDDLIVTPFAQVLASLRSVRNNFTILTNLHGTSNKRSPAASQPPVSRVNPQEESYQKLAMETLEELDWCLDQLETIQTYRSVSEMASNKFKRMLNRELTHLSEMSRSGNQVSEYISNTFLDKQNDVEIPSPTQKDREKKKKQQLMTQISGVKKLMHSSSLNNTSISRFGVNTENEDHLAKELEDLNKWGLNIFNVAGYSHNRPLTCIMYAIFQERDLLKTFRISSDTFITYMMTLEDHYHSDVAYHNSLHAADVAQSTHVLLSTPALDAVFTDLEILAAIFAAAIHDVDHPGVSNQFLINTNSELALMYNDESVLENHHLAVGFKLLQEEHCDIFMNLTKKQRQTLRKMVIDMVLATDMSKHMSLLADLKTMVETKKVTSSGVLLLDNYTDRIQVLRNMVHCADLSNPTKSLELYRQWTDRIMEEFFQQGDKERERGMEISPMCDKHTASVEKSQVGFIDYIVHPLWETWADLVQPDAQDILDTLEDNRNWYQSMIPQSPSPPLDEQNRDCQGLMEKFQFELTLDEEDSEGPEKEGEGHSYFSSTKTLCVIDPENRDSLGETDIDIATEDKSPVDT
Sequence of High affinity 3',5'-cyclic-AMP phosphodiesterase 7A (Q13946 whole entry): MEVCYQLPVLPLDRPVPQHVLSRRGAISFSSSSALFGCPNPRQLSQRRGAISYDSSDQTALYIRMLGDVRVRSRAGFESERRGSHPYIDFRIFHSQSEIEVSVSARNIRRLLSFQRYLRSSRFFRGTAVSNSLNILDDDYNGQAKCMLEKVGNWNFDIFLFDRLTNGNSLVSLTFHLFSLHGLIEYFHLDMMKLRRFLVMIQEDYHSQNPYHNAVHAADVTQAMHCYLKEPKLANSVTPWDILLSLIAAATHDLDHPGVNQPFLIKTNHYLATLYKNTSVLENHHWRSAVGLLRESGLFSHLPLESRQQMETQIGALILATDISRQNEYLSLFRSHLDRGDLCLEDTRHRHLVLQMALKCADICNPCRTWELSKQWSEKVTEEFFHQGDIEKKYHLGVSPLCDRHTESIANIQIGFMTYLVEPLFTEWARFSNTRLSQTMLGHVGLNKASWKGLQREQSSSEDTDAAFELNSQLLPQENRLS

solubility [1] | IC50 [2] | IC50 [3] | IC50 (Lymphocyte) | IC50 [4] | IC50 [5] | Compound
12.1 µg/mL (≈ 45.9 µM) |  |  |  |  |  | CCn1c(NC2CCCC2)nc2ccsc2c1=O
19.5 µg/mL (≈ 71.9 µM) | 290 nM | 7400 nM |  |  |  | CCn1c(Nc2ccccc2)nc2ccsc2c1=O
10.1 µg/mL (≈ 35.4 µM) | 88 nM | 4300 nM |  |  |  | CCn1c(Nc2ccccc2C)nc2ccsc2c1=O
65.5 µg/mL (≈ 230 µM) | > 1000 nM |  |  |  |  | CCn1c(Nc2cccc(C)c2)nc2ccsc2c1=O
84 µg/mL (≈ 294 µM) | > 1000 nM |  |  |  |  | CCn1c(Nc2ccc(C)cc2)nc2ccsc2c1=O
1.9 µg/mL (≈ 6.35 µM) | > 1000 nM |  |  |  |  | CCc1ccccc1Nc1nc2ccsc2c(=O)n1CC
0.4 µg/mL (≈ 1.35 µM) | 2300 nM |  |  |  |  | CCn1c(Nc2ccccc2C#N)nc2ccsc2c1=O
26.1 µg/mL (≈ 90.2 µM) | 61 nM | 2700 nM |  |  |  | CCn1c(Nc2ccccc2F)nc2ccsc2c1=O
6.3 µg/mL (≈ 20.6 µM) | 41 nM | 3000 nM |  |  |  | CCn1c(Nc2ccccc2Cl)nc2ccsc2c1=O
41.6 µg/mL (≈ 153 µM) | > 1000 nM |  |  |  |  | CCn1c(Nc2cccnc2)nc2ccsc2c1=O
111 µg/mL (≈ 408 µM) | 630 nM | 30000 nM |  |  |  | CCn1c(Nc2ccncc2)nc2ccsc2c1=O
120 µg/mL (≈ 413 µM) | 60 nM | 5300 nM |  |  |  | CCn1c(Nc2ccncc2F)nc2ccsc2c1=O
3.5 µg/mL (≈ 11.1 µM) | 25 nM | 670 nM |  |  |  | CCn1c(Nc2ccncc2F)nc2c(C#N)csc2c1=O
5.4 µg/mL (≈ 16.1 µM) | 8.7 nM | 610 nM | 1700 nM |  |  | CCn1c(Nc2ccncc2F)nc2c(C(C)O)csc2c1=O (stereo not given)
17.9 µg/mL (≈ 51.4 µM) | 2.1 nM | 56 nM | 260 nM |  |  | CCn1c(Nc2ccncc2F)nc2c(C(C)(C)O)csc2c1=O
31.3 µg/mL (≈ 89.8 µM) | 3.9 nM | 180 nM | 480 nM |  |  | CCn1c(Nc2ccncc2F)nc2c(CCCO)csc2c1=O
0.9 µg/mL (≈ 2.09 µM) | 1.1 nM | 310 nM |  |  |  | CCn1c(Nc2ccncc2F)nc2c(C3CCN(C(=O)OC)CC3)csc2c1=O
48.9 µg/mL (≈ 113 µM) | 0.68 nM | 280 nM | 160 nM | 29 nM | 520 nM | CCn1c(Nc2ccncc2F)nc2c(C3CCCN(C(=O)OC)C3)csc2c1=O (stereo not given)
22.7 µg/mL (≈ 47.9 µM) | 1.2 nM | 180 nM | 130 nM | 37 nM | > 10000 nM | CCn1c(Nc2ccncc2F)nc2c(C3CCCN(C(=O)C(C)(C)CO)C3)csc2c1=O (stereo not given)
28.1 µg/mL (≈ 60.2 µM) | 0.32 nM | 20 nM | < 100 nM | 17 nM | 2900 nM | CCn1c(Nc2ccncc2F)nc2c(C3CCCN(C(=O)C4(C#N)CC4)C3)csc2c1=O (stereo not given)
